Results taken from patent US20250171438A1 (Agios Pharmaceuticals, Inc., priority 2022, published 2025).

Biological target: T1, human PAH with the R408W mutation (Homo sapiens, UniProt P00439, R408W)
T1 construct: expressed in transfected cells
T1 sequence (P00439 1-452 R408W): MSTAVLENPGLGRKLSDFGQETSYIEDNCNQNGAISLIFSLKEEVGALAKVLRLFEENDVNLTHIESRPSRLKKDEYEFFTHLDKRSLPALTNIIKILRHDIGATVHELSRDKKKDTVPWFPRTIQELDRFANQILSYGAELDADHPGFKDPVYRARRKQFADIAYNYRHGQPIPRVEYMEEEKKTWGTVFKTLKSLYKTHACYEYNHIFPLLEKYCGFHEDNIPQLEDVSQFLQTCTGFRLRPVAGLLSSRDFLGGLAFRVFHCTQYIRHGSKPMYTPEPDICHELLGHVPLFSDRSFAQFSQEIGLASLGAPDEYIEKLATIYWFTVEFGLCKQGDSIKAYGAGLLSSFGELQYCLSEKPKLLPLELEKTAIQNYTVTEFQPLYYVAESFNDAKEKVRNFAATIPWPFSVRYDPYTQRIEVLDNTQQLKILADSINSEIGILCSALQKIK
Assay: Cell Based Phenylalanine Flux Assay
Conditions: A375 cells expressing human R408W PAH; 24 hrs compound incubation; 13C-Tyrosine by LC-MS; average where tested multiple times; read-out: AC50

AC50 [nM] | Compound
1000 to 5000 | CC(C)(O)c1ncc(C(=O)N2CC3(CC3)c3[nH]cnc3[C@@H]2c2nc3ccccc3s2)o1 [Example 1678, (R)-(4′-(benzo[d]thiazol-2-yl)spiro[cyclopropane-1,7′-imidazo[4,5-c]pyridin]-5′(1′H,4′H,6′H)-yl)(2-(2-hydroxypropan-2-yl)oxazol-5-yl)methanone]
500 to 1000 | CC(C)(O)c1nc(C(F)(F)F)c(C(=O)N2CC3(CC3)c3[nH]cnc3[C@H]2c2nc3ccccc3s2)o1 [Example 1679, (S)-(4′-(benzo[d]thiazol-2-yl)spiro[cyclopropane-1,7′-imidazo[4,5-c]pyridin]-5′(1′H,4′H,6′H)-yl)(2-(2-hydroxypropan-2-yl)-4-(trifluoromethyl)oxazol-5-yl)methanone]
1000 to 5000 | CC(C)(O)c1nc(C(F)(F)F)c(C(=O)N2CC3(CC3)c3[nH]cnc3[C@@H]2c2nc3ccccc3s2)o1 [Example 1680, (R)-(4′-(benzo[d]thiazol-2-yl)spiro[cyclopropane-1,7′-imidazo[4,5-c]pyridin]-5′(1′H,4′H,6′H)-yl)(2-(2-hydroxypropan-2-yl)-4-(trifluoromethyl)oxazol-5-yl)methanone]
500 to 1000 | O=C(c1oc(-c2ccccn2)nc1C(F)(F)F)N1CC2(CC2)c2[nH]cnc2[C@H]1c1nc2ccccc2s1 [Example 1681, (S)-(4′-(benzo[d]thiazol-2-yl)spiro[cyclopropane-1,7′-imidazo[4,5-c]pyridin]-5′(1′H,4′H,6′H)-yl)(2-(pyridin-2-yl)-4-(trifluoromethyl)oxazol-5-yl)methanone]
1000 to 5000 | O=C(c1oc(-c2ccccn2)nc1C(F)(F)F)N1CC2(CC2)c2[nH]cnc2[C@@H]1c1nc2ccccc2s1 [Example 1682, (R)-(4′-(benzo[d]thiazol-2-yl)spiro[cyclopropane-1,7′-imidazo[4,5-c]pyridin]-5′(1′H,4′H,6′H)-yl)(2-(pyridin-2-yl)-4-(trifluoromethyl)oxazol-5-yl)methanone]
< 500 | O=C(c1nnc(-c2ccccn2)o1)N1CC2(CC2)c2[nH]cnc2[C@H]1c1nc2ccccc2s1 [Example 1684, (S)-(4′-(benzo[d]thiazol-2-yl)spiro[cyclopropane-1,7′-imidazo[4,5-c]pyridin]-5′(1′H,4′H,6′H)-yl)(5-(pyridin-2-yl)-1,3,4-oxadiazol-2-yl)methanone]
1000 to 5000 | Cc1nnc(C(=O)N2CC3(CC3)c3[nH]cnc3[C@@H]2c2nc3ccccc3s2)o1 [Example 1685, (R)-(4′-(benzo[d]thiazol-2-yl)spiro[cyclopropane-1,7′-imidazo[4,5-c]pyridin]-5′(1′H,4′H,6′H)-yl)(5-methyl-1,3,4-oxadiazol-2-yl)methanone]
500 to 1000 | Cc1nnc(C(=O)N2CC3(CC3)c3[nH]cnc3[C@H]2c2nc3ccccc3s2)o1 [Example 1686, (S)-(4′-(benzo[d]thiazol-2-yl)spiro[cyclopropane-1,7′-imidazo[4,5-c]pyridin]-5′(1′H,4′H,6′H)-yl)(5-methyl-1,3,4-oxadiazol-2-yl)methanone]
> 5000 | CC(C)(O)c1nnc(C(=O)N2CC3(CC3)c3[nH]cnc3[C@@H]2c2nc3ccccc3s2)o1 [Example 1695, (R)-(4′-(benzo[d]thiazol-2-yl)spiro[cyclopropane-1,7′-imidazo[4,5-c]pyridin]-5′(1′H,4′H,6′H)-yl)(5-(2-hydroxypropan-2-yl)-1,3,4-oxadiazol-2-yl)methanone]
500 to 1000 | CC(C)(O)c1nnc(C(=O)N2CC3(CC3)c3[nH]cnc3[C@H]2c2nc3ccccc3s2)o1 [Example 1696, (S)-(4′-(benzo[d]thiazol-2-yl)spiro[cyclopropane-1,7′-imidazo[4,5-c]pyridin]-5′(1′H,4′H,6′H)-yl)(5-(2-hydroxypropan-2-yl)-1,3,4-oxadiazol-2-yl)methanone]
500 to 1000 | CC(C)(O)c1nc(C#N)c(C(=O)N2CCc3[nH]cnc3[C@H]2c2nc3ccccc3s2)o1 [Example 1697, (S)-5-(4-(benzo[d]thiazol-2-yl)-4,5,6,7-tetrahydro-1H-imidazo[4,5-c]pyridine-5-carbonyl)-2-(2-hydroxypropan-2-yl)oxazole-4-carbonitrile]
> 5000 | CC(C)(O)c1nc(C#N)c(C(=O)N2CCc3[nH]cnc3[C@@H]2c2nc3ccccc3s2)o1 [Example 1698, (R)-5-(4-(benzo[d]thiazol-2-yl)-4,5,6,7-tetrahydro-1H-imidazo[4,5-c]pyridine-5-carbonyl)-2-(2-hydroxypropan-2-yl)oxazole-4-carbonitrile]

More lines, now with the values behind:

Compound | AC50 [nM]
O=C(c1nnc(-c2ccccn2)o1)N1CC2(CC2)c2[nH]cnc2[C@@H]1c1nc2ccccc2s1 [Example 1683, (R)-(4′-(benzo[d]thiazol-2-yl)spiro[cyclopropane-1,7′-imidazo[4,5-c]pyridin]-5′(1′H,4′H,6′H)-yl)(5-(pyridin-2-yl)-1,3,4-oxadiazol-2-yl)methanone] | 1000 to 5000
O=C(N1CCc2[nH]cnc2[C@H]1c1nc2ccccc2s1)C(F)(F)C1(O)CCC1 [Example 1687] | < 500
O=C(N1CCc2[nH]cnc2[C@@H]1c1nc2ccccc2s1)C(F)(F)C1(O)CCC1 [Example 1688, (R)-1-(4-(benzo[d]thiazol-2-yl)-6,7-dihydro-1H-imidazo[4,5-c]pyridin-5(4H)-yl)-2,2-difluoro-2-(1-hydroxycyclobutyl)ethanone] | 1000 to 5000
O=C(N1CC(F)C1)N1CCc2[nH]cnc2[C@H]1c1nc2ccccc2s1 [Example 1689] | < 500
O=C(N1CC(F)C1)N1CCc2[nH]cnc2[C@@H]1c1nc2ccccc2s1 [Example 1690, (R)-(4-(benzo[d]thiazol-2-yl)-6,7-dihydro-1H-imidazo[4,5-c]pyridin-5(4H)-yl)(3-fluoroazetidin-1-yl)methanone] | 1000 to 5000
O=C(N1CCC1)N1CCc2[nH]cnc2[C@H]1c1nc2ccccc2s1 [Example 1691, (S)-azetidin-1-yl(4-(benzo[d]thiazol-2-yl)-6,7-dihydro-1H-imidazo[4,5-c]pyridin-5(4H)-yl)methanone] | < 500
O=C(N1CCC1)N1CCc2[nH]cnc2[C@@H]1c1nc2ccccc2s1 [Example 1692, (R)-azetidin-1-yl(4-(benzo[d]thiazol-2-yl)-6,7-dihydro-1H-imidazo[4,5-c]pyridin-5(4H)-yl)methanone] | 1000 to 5000
Cc1nc(CN(C)C)oc1C(=O)N1CCc2[nH]cnc2[C@H]1c1nc2ccccc2s1 [Example 1693] | 500 to 1000
Cc1nc(CN(C)C)oc1C(=O)N1CCc2[nH]cnc2[C@@H]1c1nc2ccccc2s1 [Example 1694, (R)-(4-(benzo[d]thiazol-2-yl)-6,7-dihydro-1H-imidazo[4,5-c]pyridin-5(4H)-yl)(2-((dimethylamino)methyl)-4-methyloxazol-5-yl)methanone] | > 5000
N#Cc1nc(NC2CC2)oc1C(=O)N1CCc2[nH]cnc2[C@H]1c1nc2ccccc2s1 [Example 1699, (S)-5-(4-(benzo[d]thiazol-2-yl)-4,5,6,7-tetrahydro-1H-imidazo[4,5-c]pyridine-5-carbonyl)-2-(cyclopropylamino)oxazole-4-carbonitrile] | 1000 to 5000
Cc1nc(CCCN2CCOCC2)oc1C(=O)N1CCc2[nH]cnc2[C@H]1c1nc2ccccc2s1 [Example 1701] | < 500
Cc1nc(CCCN2CCOCC2)oc1C(=O)N1CCc2[nH]cnc2[C@@H]1c1nc2ccccc2s1 [Example 1702, (R)-(4-(benzo[d]thiazol-2-yl)-6,7-dihydro-1H-imidazo[4,5-c]pyridin-5(4H)-yl)(4-methyl-2-(3-morpholinopropyl)oxazol-5-yl)methanone] | > 5000
COCc1ncc(C(=O)N2CCc3[nH]cnc3[C@H]2c2nc3c(F)cccc3s2)s1 [Example 1703, (S)-(4-(4-fluorobenzo[d]thiazol-2-yl)-6,7-dihydro-1H-imidazo[4,5-c]pyridin-5(4H)-yl)(2-(methoxymethyl)thiazol-5-yl)methanone] | 500 to 1000
COCc1ncc(C(=O)N2CCc3[nH]cnc3[C@@H]2c2nc3c(F)cccc3s2)s1 [Example 1704, (R)-(4-(4-fluorobenzo[d]thiazol-2-yl)-6,7-dihydro-1H-imidazo[4,5-c]pyridin-5(4H)-yl)(2-(methoxymethyl)thiazol-5-yl)methanone] | 1000 to 5000
N#Cc1nc(N2CCOCC2)oc1C(=O)N1CCc2[nH]cnc2[C@H]1c1nc2ccccc2s1 [Example 1705, (S)-5-(4-(benzo[d]thiazol-2-yl)-4,5,6,7-tetrahydro-1H-imidazo[4,5-c]pyridine-5-carbonyl)-2-morpholinooxazole-4-carbonitrile] | 500 to 1000
N#Cc1nc(N2CCOCC2)oc1C(=O)N1CCc2[nH]cnc2[C@@H]1c1nc2ccccc2s1 [Example 1706, (R)-5-(4-(benzo[d]thiazol-2-yl)-4,5,6,7-tetrahydro-1H-imidazo[4,5-c]pyridine-5-carbonyl)-2-morpholinooxazole-4-carbonitrile] | > 5000
O=C(c1oc(N2CCC(F)CC2)nc1C(F)F)N1CCc2[nH]cnc2[C@H]1c1nc2ccccc2s1 [Example 1707] | < 500
O=C(c1oc(N2CCC(F)CC2)nc1C(F)F)N1CCc2[nH]cnc2[C@@H]1c1nc2ccccc2s1 [Example 1708, (R)-(4-(benzo[d]thiazol-2-yl)-6,7-dihydro-1H-imidazo[4,5-c]pyridin-5(4H)-yl)(4-(difluoromethyl)-2-(4-fluoropiperidin-1-yl)oxazol-5-yl)methanone] | < 500
